Experiments:
[1] = biological target: T1, YAP1 (residues 50-171) / TEAD1 (residues 194-411) association (Homo sapiens, UniProt P46937); assay: In vitro GST pull-down of His-tagged YAP1 with GST-TEAD1; format: binding; conditions: concentration-dependent
T1 construct: His; made in house
Procedure: FIGS. 1A-G show the identification of a YAP1-TEAD1 binding interface inhibitor. […] The Gal4 DBD was fused to residues 50-171 of human YAP1 and the Gal4 AD was fused to residues 194-411 of human TEAD1. These fusions were expressed in yeast containing reporters harboring Gal4 upstream activating sequences (UAS). […] Yeast expressing either p53-DBD and SV40 large T antigen-AD fusions or YAP1-DBD and TEAD1-AD fusions were plated on selective media. Compounds were pinned onto the plate surfaces by robotic transfer and subsequently examined for halo formation (indicated by red circles). […] Pull-down products were analyzed by SDS-PAGE and silver staining. […] Raw binding sensorgrams obtained at each concentration were fitted to a 1:1 binding model and Kon, Koff and KD were calculated by simultaneous non-linear regression analyses.
Results. […] To examine the mechanism by which NSC682769 inhibits YAP, the ability of full-length human YAP1 to bind to NSC682769 cross-linked affinity beads prepared using a photo-cross-linking procedure (Holmes B, et al. (2016) J Biol Chem 291: 14146-14159) was determined. Recombinant YAP was incubated with control, IRES-J007 (negative control), or NSC682769-coupled beads and binding analyzed by immunoblotting for YAP (FIG. 1F). […]

YAP-TEAD interaction = biological target: T2, YAP-TEAD interaction (Homo sapiens, UniProt P46937); assay: Co-immunoprecipitation of myc-TEAD with HA-YAP from treated LN229 cells; format: cell-based; conditions: LN229 GBM cells, 24 h
T2 construct: expressed in transfected cells; host or cells: LN229
T2 sequence (P46937 whole entry): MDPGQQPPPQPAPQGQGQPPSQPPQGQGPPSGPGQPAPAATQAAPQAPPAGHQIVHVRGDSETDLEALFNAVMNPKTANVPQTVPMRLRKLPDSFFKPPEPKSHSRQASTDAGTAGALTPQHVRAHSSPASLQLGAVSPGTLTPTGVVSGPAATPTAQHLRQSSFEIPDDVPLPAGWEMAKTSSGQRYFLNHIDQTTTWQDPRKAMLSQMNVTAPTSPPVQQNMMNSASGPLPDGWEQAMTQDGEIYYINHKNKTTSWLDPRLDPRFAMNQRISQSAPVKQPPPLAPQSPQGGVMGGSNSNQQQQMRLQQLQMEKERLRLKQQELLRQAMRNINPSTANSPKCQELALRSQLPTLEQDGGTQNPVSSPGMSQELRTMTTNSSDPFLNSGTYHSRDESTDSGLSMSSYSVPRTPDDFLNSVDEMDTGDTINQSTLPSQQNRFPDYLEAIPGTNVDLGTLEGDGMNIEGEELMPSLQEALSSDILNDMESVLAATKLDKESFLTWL
Procedure: FIGS. 1A-G show the identification of a YAP1-TEAD1 binding interface inhibitor. […] The Gal4 DBD was fused to residues 50-171 of human YAP1 and the Gal4 AD was fused to residues 194-411 of human TEAD1. These fusions were expressed in yeast containing reporters harboring Gal4 upstream activating sequences (UAS). […] Yeast expressing either p53-DBD and SV40 large T antigen-AD fusions or YAP1-DBD and TEAD1-AD fusions were plated on selective media. Compounds were pinned onto the plate surfaces by robotic transfer and subsequently examined for halo formation (indicated by red circles). Compounds inhibiting YAP1-TEAD1 mediated growth on selective media while having no effect on p53-T antigen mediated yeast growth were considered specific. Compounds which blocked the growth of both strains were considered nonspecific and were classified as having general antifungal properties. […] His-tagged YAP (amino acids 50-171 of Accession No. NP_006097) was used in a GST pull-down assay using GST-TEAD (amino acids 194-411 of Accession No. NP_068780) immobilized on glutathione resin. Pull-down products were analyzed by SDS-PAGE and silver staining. […] Cells treated with antimycin A are shown as a negative control. […] Raw binding sensorgrams obtained at each concentration were fitted to a 1:1 binding model and Kon, Koff and KD were calculated by simultaneous non-linear regression analyses.
Protein and mRNA analyses, immunoprecipitation, in vitro bead-coupled inhibitor binding assays and HPLC analyses. […] Antigen-antibody complexes were detected using appropriate horseradish peroxidase-conjugated secondary antibodies (GE Healthcare) and enhanced chemiluminescence (Amersham ECL Prime). […] For quantitative RT-PCR, extraction of RNA was performed using Trizol® (Life Technologies). Total RNA was then quantified and integrity assessed using an Agilent 2100 Bioanalyzer (Agilent Technology). […] SYBR® Green quantitative PCR (Millipore Sigma) was performed in triplicate in 96-well optical plates on an ABI Prism 7000 Sequence Detection System (Life Technologies) according to the manufacturer's instructions. […]

T1 sequence (P46937 50-171): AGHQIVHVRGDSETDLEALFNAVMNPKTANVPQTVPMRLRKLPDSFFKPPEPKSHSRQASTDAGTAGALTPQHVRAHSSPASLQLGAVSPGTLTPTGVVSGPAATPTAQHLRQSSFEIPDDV

Structure (SMILES): COc1ccc(-c2cc(-c3ccccc3)nc3c2CC(=O)Nc2ccccc2-3)cc1OC [NSC682769]
- Inhibition of His-tagged YAP1 and GST-TEAD1 association [1]: marked inhibition
- Association of YAP1 with TEAD1 in YAP1 immunoprecipitates (YAP-TEAD interaction): blocked the association of YAP1 with TEAD1

Source: US20240108634A1, “COMPOSITIONS AND METHODS FOR INHIBITING YAP” (The United States Government as represented by the …, priority 2021, published 2024)
